From US20240182948A1, “METHODS AND COMPOSITIONS FOR DETECTION OF TUMOR DNA” (The Broad Institute, Inc., priority 2021, published 2024)

Test system: macrophages co-incubated with apoptotic KPLG cells
Test: Chloroquine treatment of macrophages after co-incubation with apoptotic KPLG cells; recovery of tumor DNA from cell fractions
Type: cell-based, murine
Protocol: FIG. 9A: Cytoplasmic DNA mass recovered from macrophages with or without 25 μM CQ treatment for 3 hours. FIG. 9B: Nuclear DNA mass recovered from macrophages with or without 25 μM CQ treatment for 3 hours. FIG. 9C: Cytoplasmic KRAS G12D to WT ratio. Apoptotic KPLG cells were washed away after 1 hour of co-incubation with macrophages before CQ treatment. FIG. 9D: Nuclear KRAS G12D to WT ratio. Apoptotic KPLG cells were washed away after 1 hour of co-incubation with macrophages before CQ treatment.
To test if pharmacologically blocking the DNA degradation pathway could lead to increased recovery of tumor DNA in macrophages, apoptotic KPLG cells were co-incubated with macrophage cells for 1 hour, after which apoptotic cells were washed away, and macrophages were treated either with or without 25 μM chloroquine.
Cell lines: KPLG cells were kindly provided by the Jacks Laboratory at the Massachusetts Institute of Technology (MIT). BMDM were harvested from femurs of wild-type […] mice and DNase 2a−/− mice. KPLG cells were cultured in DMEM supplemented with 10% fetal bovine serum (Gibco) and 1% penicillin/streptomycin (Corning); BMDM cells were cultured in DMEM supplemented with 10% fetal bovine serum (Gibco) and 1% penicillin/streptomycin (Corning), and 15% L929 conditioned medium. All cells were cultured in a humidified atmosphere of 95% air and 5% CO2 at 37° C. The KPLG cell line was declared pathogen free after being subjected to murine pathogen testing by the Diagnostic Laboratory of the Division of Comparative Medicine (MIT).
Cell fractionation and DNA extraction: Cells were collected by centrifugation at 3000×g for 7 min. The cells were lysed using four volumes of lysis buffer (20 mM Tris-HCl, pH 7.4, 10 mM KCl, 2 mM MgCl2, 1 mM DTT, and 1 mM EDTA) for 20 min. on ice. The nuclear pellet was collected by centrifugation twice at 800×g for 5 min. The mitochondrial fraction was collected by centrifugation twice at 10,000×g for 10 min. The collected supernatant was used as the cytoplasmic fraction. […]

With CCN(CC)CCCC(C)Nc1ccnc2cc(Cl)ccc12 (stereo not drawn) [Chloroquine, chloroquine] the “digestion of cytoplasmic tumor-derived DNA by macrophages” value (25 μM CQ treatment for 3 hours, legend of FIGS. 9A-9D) was “inhibits digestion”, the “total cytoplasmic DNA mass recovered from macrophages” value (25 μM chloroquine vs. no treatment, apoptotic KPLG cells washed away after 1 hour of co-incubation, FIG. 9A: treatment for 3 hours) was “increase” and the “presence of KRAS G12D in the cytoplasmic DNA fraction of macrophages (KRAS G12D to WT ratio)” value (25 μM chloroquine vs. no treatment, apoptotic KPLG cells washed away after 1 hour of co-incubation, TaqMan qPCR) was “increase”.
